Reference: article PMC12130451 (Scientific Reports, 2025)

Key:
[1] = target: AChE (Electrophorus electricus, UniProt O42275); experiment: Enzyme kinetic study; assay type: biochemical, electric eel
[2] = target: acetylcholinesterase (AChE, E.C. 3.1.1.7, Type V-S) (Electrophorus electricus, UniProt O42275); experiment: AChE inhibition, modified Ellman method; assay type: biochemical, electric eel; details: read-out: % Inhibition at 50 µM, AChE, Mean ± SE
acetylcholinesterase (AChE, E.C. 3.1.1.7, Type V-S), sequence (O42275 24-633): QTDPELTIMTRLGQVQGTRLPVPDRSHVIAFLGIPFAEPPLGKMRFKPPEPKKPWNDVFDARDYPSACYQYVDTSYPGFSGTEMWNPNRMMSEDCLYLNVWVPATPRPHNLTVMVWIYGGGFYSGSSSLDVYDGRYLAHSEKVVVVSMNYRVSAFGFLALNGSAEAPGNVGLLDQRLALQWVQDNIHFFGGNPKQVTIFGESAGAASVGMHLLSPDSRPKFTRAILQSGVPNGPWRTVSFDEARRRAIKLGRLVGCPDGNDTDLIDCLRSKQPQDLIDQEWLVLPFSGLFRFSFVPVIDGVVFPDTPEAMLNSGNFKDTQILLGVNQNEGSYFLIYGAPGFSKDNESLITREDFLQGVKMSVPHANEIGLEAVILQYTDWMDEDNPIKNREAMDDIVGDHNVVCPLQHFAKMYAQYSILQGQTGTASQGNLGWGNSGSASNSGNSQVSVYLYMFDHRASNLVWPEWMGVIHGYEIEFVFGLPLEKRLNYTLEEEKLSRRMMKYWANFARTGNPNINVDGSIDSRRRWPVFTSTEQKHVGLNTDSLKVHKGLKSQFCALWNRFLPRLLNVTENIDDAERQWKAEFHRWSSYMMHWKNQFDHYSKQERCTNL

AChE, sequence (O42275 24-633): as above

Row | Structure (SMILES) | Ki [1] [µM] | secondary inhibition constant (Kis) ([1]; AChE, 1/Vmax vs inhibitor concentration) [µM] | type of inhibition ([1]; AChE, Lineweaver-Burk plot) | inhibition at 50 µM [2] [%]
1 | CC(C)(C)OC(=O)NC1CCCN(C(=O)/C=C/c2ccccc2Cl)C1 (stereo not shown) [5b, tert-butyl (E)-(1-(3-(2-chlorophenyl)acryloyl)piperidin-3-yl)carbamate] | 10 | 36.16 | mix-type inhibition | –
2 | COc1ccc(OC)c(/C=C/C(=O)N2CCCC(NC(=O)OC(C)(C)C)C2)c1 (stereo not shown) [5o, tert-butyl (E)-(1-(3-(2,5-dimethoxyphenyl)acryloyl)piperidin-3-yl)carbamate] | – | – | – | 44.1
